Experimental findings from US10676468B2, “N-(3-heteroarylaryl)-4-arylarylcarboxamides and analogs as hedgehog pathway inhibitors and use thereof” (IMPACT Therapeutics, Inc., priority 2012, dated 2020) are described below.

What all share (assay type): cell-based, mouse
For assay [1], the system named is Hedgehog Signaling Pathway. The assay can be described thus: SAG-induced differentiation of C3H10T1/2 cells into osteoblastic cells, intracellular alkaline phosphatase activity. The note with it: 1 μM SAG, 5 days, alkaline phosphatase activity (OD405), read-out: IC50 values of compounds that inhibit Hh pathway. Summed up: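 Mouse C3H10T1/2 cells were induced with SAG and exposed to compound (10 μM to 1 nM) for 5 days at 37 °C. Cells were lysed in 0.2% Triton, and alkaline phosphatase activity was read as OD405 over 30 min at 37 °C in pH 9.8 substrate buffer. IC50 came from a non-linear fit of background-subtracted OD405 against log concentration.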

The test system of assay [2] is Hedgehog Signaling Pathway. Put plainly: SHH-induced differentiation of C3H10T1/2 cells into osteoblastic cells, intracellular alkaline phosphatase activity. The note with it: 10 nM SHH-N, 5 days, alkaline phosphatase activity (OD405), read-out: IC50 values of compounds that inhibit Hh pathway. Summed up:
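Hedgehog pathway inhibition was taken as loss of SHH-driven osteoblastic differentiation. Test compound (10 nM–10 μM) plus SHH-N (10 nM) was applied to C3H10T1/2 cells for 5 days, then lysate phosphatase turnover was measured as the 30-min OD405 change at 37 °C. IC50 was fitted from activity versus log dose.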

Assay [3] has as its system Hedgehog Signaling Pathway. Put plainly: Gli-Luc reporter gene cell assay in C3H10T1/2/Gli-Luc cells stimulated with Shh. Conditions: 30 nM Shh, luciferase activity (RLU), read-out: IC50 values of compounds that inhibit Hh pathway. Summed up: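 IC50 from nonlinear fit of luciferase RLU versus log compound concentration. Stably transfected C3H10T1/2/Gli-Luc cells received a 7-point compound series alongside Shh (30 nM in the added medium) for 24 h at 37 °C in DMEM/10% FBS, then were lysed for luciferase readout.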
(In a reporter assay the amount or activity of a reporter protein is the signal.)

Setting [4] is: Mus musculus, C3H 10T1/2, 120 h.

The structures appear in SMILES notation.

Usually IC50 stands for the concentration that inhibits the measured activity by half. For `Cc1cc(N2C[C@@H](C)N(C)[C@@H](C)C2)ccc1C(=O)Nc1ccc(Cl)c(-c2ncc(-c3cccs3)[nH]2)c1` [Example 81, N-(3-(5-(thiophen-2-yl)-1H-imidazol-2-yl)-4-chlorophenyl)-2-methyl-4-((3S,5R)-3,4,5-trimethylpiperazin-1-yl)benzamide], the IC50 came out at 6.4 nM in assay [1] (setting [4]); 0.16 nM in assay [2] (setting [4]); 0.15 nM in assay [3] (Mus musculus, C3H 10T1/2, 24 h).

For the compound `C[C@@H]1CN(c2ccc(C(=O)Nc3ccc(Cl)c(-c4ncc(-c5cccs5)[nH]4)c3)c(Cl)c2)C[C@H](C)N1C` [Example 82, N-(3-(5-(thiophen-2-yl)-1H-imidazol-2-yl)-4-chlorophenyl)-2-chloro-4-((3S,5R)-3,4,5-trimethylpiperazin-1-yl)benzamide], the IC50 in assay [1] (setting [4]) was determined as 12 nM; in assay [2] (setting [4]), 0.21 nM; in assay [3] (Mus musculus, C3H 10T1/2, 24 h) it was 0.16 nM.

With `Cc1cc(N2C[C@@H](C)O[C@@H](C)C2)ccc1C(=O)Nc1cnc(Cl)c(-c2nc3ccccc3[nH]2)c1` [Example 83, N-(5-(1H-benzo[d]imidazol-2-yl)-6-chloropyridin-3-yl)-2-methyl-4-((2S,6R)-2,6-dimethylmorpholino)benzamide], the IC50 amounted to 43 nM in assay [1] (setting [4]); 9.2 nM in assay [2] (setting [4]); 6.3 nM in assay [3] (Mus musculus, C3H 10T1/2, 24 h).

For `Cc1nc(N2C[C@@H](C)O[C@@H](C)C2)ccc1C(=O)Nc1cnc(Cl)c(-c2nc3ccccc3[nH]2)c1` [Example 84, N-(5-(1H-benzo[d]imidazol-2-yl)-6-chloropyridin-3-yl)-2-methyl-6-((2S,6R)-2,6-dimethylmorpholino)nicotinamide], the IC50 in assay [1] (setting [4]) was determined as 44 nM; in assay [2] (setting [4]), 7.1 nM; in assay [3] (Mus musculus, C3H 10T1/2, 24 h) it was 10 nM.

On to `Cc1cc(N2C[C@@H](C)O[C@@H](C)C2)ncc1C(=O)Nc1cnc(Cl)c(-c2nc3ccccc3[nH]2)c1` [Example 85, N-(5-(1H-benzo[d]imidazol-2-yl)-6-chloropyridin-3-yl)-4-methyl-6-((2S,6R)-2,6-dimethylmorpholino)nicotinamide], for which the concentration for half-maximal inhibition (IC50) stood at 49 nM in assay [1] (setting [4]); 5.6 nM in assay [2] (setting [4]); 7.1 nM in assay [3] (Mus musculus, C3H 10T1/2, 24 h).

As for `C[C@@H]1CN(c2ccc(C(=O)Nc3cnc(Cl)c(-c4nc5ccccc5[nH]4)c3)cn2)C[C@H](C)N1C` [Example 86, N-(5-(1H-benzo[d]imidazol-2-yl)-6-chloropyridin-3-yl)-6-((3S,5R)-3,4,5-trimethylpiperazin-1-yl)nicotinamide], the half-maximal inhibitory concentration (IC50) in assay [1] (setting [4]) came out at 40 nM; in assay [2] (setting [4]), 1.7 nM; in assay [3] (Mus musculus, C3H 10T1/2, 24 h) it was 0.94 nM.

Take `Cc1cc(N2C[C@@H](C)N(C)[C@@H](C)C2)ccc1C(=O)Nc1cnc(Cl)c(-c2nc3ccccc3[nH]2)c1` [Example 87]: the IC50 was determined as 21 nM in assay [1], 1.7 nM in assay [2] and 0.53 nM in assay [3] (24 hours).

Consider `Cc1cc(N2C[C@@H](C)N(C)[C@@H](C)C2)ccc1C(=O)Nc1cnc(C)c(-c2nc3ccccc3[nH]2)c1` [Example 88, N-(5-(1H-benzo[d]imidazol-2-yl)-6-methylpyridin-3-yl)-2-methyl-4-((3S,5R)-3,4,5-trimethylpiperazin-1-yl)benzamide], for which the IC50 stood at 119 nM in assay [1] (setting [4]); 11 nM in assay [2] (setting [4]); 6.7 nM in assay [3] (Mus musculus, C3H 10T1/2, 24 h).

On to `Cc1cc(C(=O)Nc2cnc(C)c(-c3nc4ccccc4[nH]3)c2)ccc1N1C[C@@H](C)N(C)[C@@H](C)C1` [Example 89, N-(5-(1H-benzo[d]imidazol-2-yl)-6-methylpyridin-3-yl)-3-methyl-4-((3S,5R)-3,4,5-trimethylpiperazin-1-yl)benzamide], for which the IC50 in assay [1] (setting [4]) is 381 nM; in assay [2] (setting [4]) it was 55 nM; in assay [3] (Mus musculus, C3H 10T1/2, 24 h), 21 nM.

With `Cc1ncc(NC(=O)c2ccc(N3C[C@@H](C)N(C)[C@@H](C)C3)nc2)cc1-c1nc2ccccc2[nH]1` [Example 90, N-(5-(1H-benzo[d]imidazol-2-yl)-6-methylpyridin-3-yl)-6-((3S,5R)-3,4,5-trimethylpiperazin-1-yl)nicotinamide], the concentration for half-maximal inhibition (IC50) was found to be 461 nM in assay [1] (setting [4]); 35 nM in assay [2] (setting [4]); 25 nM in assay [3] (Mus musculus, C3H 10T1/2, 24 h).

For the compound `Cc1cc(N2C[C@@H](C)O[C@@H](C)C2)ncc1C(=O)Nc1ccc(Cl)c(-c2nc3ccccc3[nH]2)c1` [Example 91, N-(3-(1H-benzo[d]imidazol-2-yl)-4-chlorophenyl)-4-methyl-6-((2S,6R)-2,6-dimethylmorpholino)nicotinamide], the concentration for half-maximal inhibition (IC50) in assay [1] (setting [4]) came to 52 nM; in assay [2] (setting [4]) it was 6.8 nM; in assay [3] (Mus musculus, C3H 10T1/2, 24 h), 7.8 nM.

In the case of `Cc1cc(N2C[C@@H](C)N(C)[C@@H](C)C2)ccc1C(=O)Nc1ccc(Cl)c(-c2nc3ccccc3[nH]2)c1` [Example 93, N-(3-(1H-benzo[d]imidazol-2-yl)-4-chlorophenyl)-2-methyl-4-((3S,5R)-3,4,5-trimethylpiperazin-1-yl)benzamide], the IC50 in assay [1] (setting [4]) was 32 nM; in assay [2] (setting [4]), 0.69 nM; in assay [3] (Mus musculus, C3H 10T1/2, 24 h), 0.5 nM.

Regarding `C[C@@H]1CN(c2ccc(C(=O)Nc3ccc(Cl)c(-c4nc5ccccc5[nH]4)c3)c(Cl)c2)C[C@H](C)N1C` [Example 94, N-(3-(1H-benzo[d]imidazol-2-yl)-4-chlorophenyl)-2-chloro-4-((3S,5R)-3,4,5-trimethylpiperazin-1-yl)benzamide], the IC50 in assay [1] (setting [4]) worked out at 16 nM; in assay [2] (setting [4]), 0.81 nM; in assay [3] (Mus musculus, C3H 10T1/2, 24 h), 0.63 nM.

For `C[C@@H]1CN(c2ccc(C(=O)Nc3ccc(Cl)c(-c4nc5ccccc5[nH]4)c3)c(F)c2)C[C@H](C)N1C` [Example 95, N-(3-(1H-benzo[d]imidazol-2-yl)-4-chlorophenyl)-2-fluoro-4-((3S,5R)-3,4,5-trimethylpiperazin-1-yl)benzamide], the IC50 in assay [1] (setting [4]) worked out at 111 nM; in assay [2] (setting [4]) it was 13 nM; in assay [3] (Mus musculus, C3H 10T1/2, 24 h), 3.3 nM.

In the case of `C[C@@H]1CN(c2ccc(C(=O)Nc3ccc(Cl)c(-c4nc5ccc(Cl)cc5[nH]4)c3)c(Cl)c2)C[C@H](C)N1C` [Example 96, N-(3-(6-chloro-1H-benzo[d]imidazol-2-yl)-4-chlorophenyl)-2-chloro-4-((3S,5R)-3,4,5-trimethylpiperazin-1-yl)benzamide], the IC50 came to 106 nM in assay [1] (setting [4]); 5 nM in assay [2] (setting [4]); 3.3 nM in assay [3] (Mus musculus, C3H 10T1/2, 24 h).

On to `Cc1cc(N2C[C@@H](C)N(C)[C@@H](C)C2)ccc1C(=O)Nc1ccc(Cl)c(-c2nc3ccc(Cl)cc3[nH]2)c1` [Example 97, N-(3-(6-chloro-1H-benzo[d]imidazol-2-yl)-4-chlorophenyl)-2-methyl-4-((3S,5R)-3,4,5-trimethylpiperazin-1-yl)benzamide], for which the IC50 in assay [1] (setting [4]) worked out at 32 nM; in assay [2] (setting [4]), 0.59 nM; in assay [3] (Mus musculus, C3H 10T1/2, 24 h), 1.7 nM.

Consider `Cc1cc(N2C[C@@H](C)N(C)[C@@H](C)C2)ccc1C(=O)Nc1ccc(Cl)c(-c2nc3ccc(F)cc3[nH]2)c1` [Example 98, N-(3-(6-fluoro-1H-benzo[d]imidazol-2-yl)-4-chlorophenyl)-2-methyl-4-((3S,5R)-3,4,5-trimethylpiperazin-1-yl)benzamide], for which the half-inhibitory concentration (IC50) worked out at 24 nM in assay [1] (setting [4]); 1.4 nM in assay [2] (setting [4]); 0.96 nM in assay [3] (Mus musculus, C3H 10T1/2, 24 h).

With `C[C@@H]1CN(c2ccc(C(=O)Nc3ccc(Cl)c(-c4nc5ccc(F)cc5[nH]4)c3)c(Cl)c2)C[C@H](C)N1C` [Example 99, N-(3-(6-fluoro-1H-benzo[d]imidazol-2-yl)-4-chlorophenyl)-2-chloro-4-((3S,5R)-3,4,5-trimethylpiperazin-1-yl)benzamide], the IC50 worked out at 81 nM in assay [1] (setting [4]); 2.6 nM in assay [2]; 1.6 nM in assay [3] (Mus musculus, C3H 10T1/2, 24 h).

Turning to `CCN1[C@H](C)CN(c2ccc(C(=O)Nc3ccc(Cl)c(-c4nc5ccccc5[nH]4)c3)c(C)c2)C[C@@H]1C` [Example 100, N-(3-(1H-benzo[d]imidazol-2-yl)-4-chlorophenyl)-2-methyl-4-((3S,5R)-4-ethyl-3,5-dimethylpiperazin-1-yl)benzamide], the IC50 in assay [1] (setting [4]) turned out to be 33 nM; in assay [2] (setting [4]), 2.3 nM; in assay [3] (Mus musculus, C3H 10T1/2, 24 h) it was 0.58 nM.

As to `Cc1cc(N2C[C@@H](C)N(C(C)C)[C@@H](C)C2)ccc1C(=O)Nc1ccc(Cl)c(-c2nc3ccccc3[nH]2)c1` [Example 101, N-(3-(1H-benzo[d]imidazol-2-yl)-4-chlorophenyl)-2-methyl-4-((3S,5R)-4-isopropyl-3,5-dimethylpiperazin-1-yl)benzamide], the 50% inhibitory concentration (IC50) in assay [1] (setting [4]) came to 46 nM; in assay [2] (setting [4]), 0.64 nM; in assay [3] (Mus musculus, C3H 10T1/2, 24 h), 0.67 nM.

As to `CN1CCN(c2ccc(C(=O)Nc3ccc(Cl)c(-c4nc5ccccc5[nH]4)c3)cn2)CC1` [Example 103, N-(3-(1H-benzo[d]imidazol-2-yl)-4-chlorophenyl)-6-(4-methylpiperazin-1-yl)nicotinamide], the IC50 was 449 nM in assay [1] (setting [4]); 40 nM in assay [2] (setting [4]); 9.4 nM in assay [3] (Mus musculus, C3H 10T1/2, 24 h).

With `C[C@@H]1CN(c2ccc(C(=O)Nc3ccc(Cl)c(-c4nc5ccccc5[nH]4)c3)cn2)C[C@H](C)N1C` [Example 104, N-(3-(1H-benzo[d]imidazol-2-yl)-4-chlorophenyl)-6-((3S,5R)-3,4,5-trimethylpiperazin-1-yl)nicotinamide], the IC50 came out at 58 nM in assay [1] (setting [4]); 0.61 nM in assay [2] (setting [4]); 0.94 nM in assay [3] (Mus musculus, C3H 10T1/2, 24 h).
